# Measurements as given in patent US8791123B2, “Substituted pyrazolo[1,5-a]pyrimidine compounds as Trk kinase inhibitors” (Array Biopharma, Inc., priority 2009, dated 2014).
# Where two headings read alike, the source gives them in different places.
# Tests used:
# [1] = target: TrkA (histidine-tagged recombinant human TrkA, cytoplasmic domain) (Homo sapiens (Human), UniProt P04629); experiment: TrkA ELISA Assay; assay type: biochemical; settings: Table 1; ELISA, 500 μM ATP; read-out: TrkA Enzyme IC50
# Protocol: An enzyme-linked immunosorbant assay (ELISA) was used to assess TrkA kinase activity in the presence of inhibitors. Immulon 4HBX 384-well microtiter plates (Thermo part #8755) were coated with a 0.025 mg/mL solution of poly (Glu, Ala, Tyr; 6:3:1; Sigma P3899). […] The reaction mixture was removed from the plate by washing with PBS containing 0.1% (v/v) Tween 20. The phosphorylated reaction product was detected using 0.2 μg/mL of a phosphotyrosine specific monoclonal antibody (clone PY20) conjugated to horseradish peroxidase in conjunction with the TMB Peroxidase Substrate System (KPL). After the addition of 1M phosphoric acid, the chromogenic substrate color intensity was quantitated via absorbance at 450 nm.
# [2] = target: Human Jak2 kinase domain (Homo sapiens (Human), UniProt O60674); experiment: Jak2 Inhibition Assay (Omnia kinase assay); assay type: biochemical; settings: read-out: Jak2 Enzyme IC50
# Protocol: The assays described in Examples C, D, E and F for the determination of JAK1, JAK2, JAK3 and Tyk2 kinase activity, respectively, utilized the Omnia® Kinase fluorescence peptide substrate-based technology (Invitrogen). […] The reactions were therefore read at excitation 360 nm and emission was measured at 485 nm every 50 seconds for 45 minutes using a PerkinElmer EnVision Multilabel Plate Reader.
# The final buffer conditions for each of the JAK1, JAK2, JAK3 and Tyk2 assays were as follows: 25 mM HEPES, pH 7.4, 10 mM MgCl2, 0.01% Triton X-100 and 1 mM DTT.
# Two-μL aliquots of these were transferred to a fresh plate for a ten-fold intermediate dilution with assay buffer. Five-μL aliquots of the diluted compounds were then transferred to 20-μL of assay mixtures described in Examples C, D, E and F for a final concentration of DMSO of 2%. […] For each plate, percent of control (POC) values were calculated for each well according to the following equation:
# [formula] • where • Xmax=Average Uninhibited Controls • Xmin=Average Background IC50's were estimated from the POC's using a standard 4-parameter logistic model:
# [formula] • where • A=Minimum Y (Bottom Asymptote) • B=Maximum Y (Top Asymptote) • C=EC50 • D=Slope Factor • X=Compound Concentration (nM) • Y=POC
# The IC50 is defined as the concentration of inhibitor at which the POC equals 50 for the fitted curve.
# Compounds of Formula I were screened for their ability to inhibit Jak2 using the general enzyme inhibition assay method, in which the assay mixture contained 500 μM ATP, 10 μM Omnia® Y7 peptide (Catalog # IVGN KNZ3071C, Invitrogen Corporation, Carlsbad, Calif.) and 4 nM Jak2 in a total volume of 20 μL. Human Jak2 kinase domain comprising amino acids 808-1132 was purchased from Invitrogen Corporation, Carlsbad, Calif. (catalog # IVGN PV4210).
# [3] = Table 1, 500 μM ATP, >1000 nM when >50% inhibition not observed at 1000 nM
# Human Jak2 kinase domain, sequence (O60674 808-1132): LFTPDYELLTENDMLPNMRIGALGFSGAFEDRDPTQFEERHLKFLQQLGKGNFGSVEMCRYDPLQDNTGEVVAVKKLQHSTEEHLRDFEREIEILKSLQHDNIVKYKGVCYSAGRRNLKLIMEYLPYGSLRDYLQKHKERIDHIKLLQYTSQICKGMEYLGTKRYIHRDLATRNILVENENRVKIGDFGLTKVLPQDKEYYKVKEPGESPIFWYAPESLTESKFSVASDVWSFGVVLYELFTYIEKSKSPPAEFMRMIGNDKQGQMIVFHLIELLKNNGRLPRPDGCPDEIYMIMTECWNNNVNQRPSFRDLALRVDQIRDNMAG
# TrkA (histidine-tagged recombinant human TrkA, cytoplasmic domain), sequence (P04629 440-796): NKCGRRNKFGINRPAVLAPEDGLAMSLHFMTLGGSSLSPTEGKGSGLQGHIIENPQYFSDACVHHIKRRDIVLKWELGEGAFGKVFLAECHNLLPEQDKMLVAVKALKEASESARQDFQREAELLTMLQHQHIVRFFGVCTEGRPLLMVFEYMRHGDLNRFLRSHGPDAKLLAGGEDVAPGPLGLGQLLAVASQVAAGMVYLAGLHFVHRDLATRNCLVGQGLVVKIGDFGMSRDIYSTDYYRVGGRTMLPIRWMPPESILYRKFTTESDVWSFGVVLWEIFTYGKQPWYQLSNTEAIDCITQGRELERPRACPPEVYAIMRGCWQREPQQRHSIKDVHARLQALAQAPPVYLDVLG
SMILES,IC50 [1],"IC50 [2, 3]",IC50 [2]
"Cn1cc(F)cc([C@H]2CCCN2c2ccn3ncc(C(=O)NC4(C)CC4)c3n2)c1=O [Example 237, (R)-5-(2-(5-fluoro-1-methyl-2-oxo-1,2-dihydropyridin-3-yl)pyrrolidin-1-yl)-N-(1-methylcyclopropyl)pyrazolo[1,5-a]pyrimidine-3-carboxamide]",2.1 nM,616 nM,
"O=C(N[C@H]1CCC[C@@H]1O)c1cnn2ccc(N3CCC[C@@H]3c3cncc(F)c3)nc12 [Example 103, 5-((R)-2-(5-fluoropyridin-3-yl)pyrrolidin-1-yl)-N-((1S,2S)-2-hydroxycyclopentyl)pyrazolo[1,5-a]pyrimidine-3-carboxamide]",87.8 nM,> 1000 nM,
"Cc1ncc(F)cc1[C@H]1CCCN1c1ccn2ncc(C(=O)N3CC(O)C3)c2n1 [Example 192, (R)-(5-(2-(5-fluoro-2-methylpyridin-3-yl)pyrrolidin-1-yl)pyrazolo[1,5-a]pyrimidin-3-yl)(3-hydroxyazetidin-1-yl)methanone]",438 nM,> 1000 nM,
"Cc1ncc(F)cc1[C@H]1CCCN1c1ccn2ncc(C(=O)NC(C)(C)C)c2n1 [Example 183, (R)-N-tert-butyl-5-(2-(5-fluoro-2-methylpyridin-3-yl)pyrrolidin-1-yl)pyrazolo[1,5-a]pyrimidine-3-carboxamide]",6.9 nM,> 1000 nM,
"COCCOc1ccc(F)cc1[C@H]1CCCN1c1ccn2ncc(C(N)=O)c2n1 [Example 89, (R)-5-(2-(5-fluoro-2-(2-methoxyethoxy)phenyl)pyrrolidin-1-yl)pyrazolo[1,5-a]pyrimidine-3-carboxamide]",3.6 nM,> 1000 nM,
"COc1ncc(F)cc1[C@H]1CCCN1c1ccn2ncc(C(=O)NOCCOC(C)(C)C)c2n1 [Example 152, (R)-N-(2-tert-butoxyethoxy)-5-(2-(5-fluoro-2-methoxypyridin-3-yl)pyrrolidin-1-yl)pyrazolo[1,5-a]pyrimidine-3-carboxamide]",18.1 nM,> 1000 nM,
"CC1(C)OCC(COc2cc(F)cc([C@H]3CCCN3c3ccn4ncc(C(=O)NC5CC5)c4n3)c2)O1 (stereo partly drawn) [Example 206, N-cyclopropyl-5-((2R)-2-(3-((2,2-dimethyl-1,3-dioxolan-4-yl)methoxy)-5-fluorophenyl)pyrrolidin-1-yl)pyrazolo[1,5-a]pyrimidine-3-carboxamide]",3.9 nM,> 1000 nM,
"O=C(c1cnn2ccc(N3CCC[C@@H]3c3cncc(F)c3)nc12)N1CCC1 [Example 126, (R)-azetidin-1-yl(5-(2-(5-fluoropyridin-3-yl)pyrrolidin-1-yl)pyrazolo[1,5-a]pyrimidin-3-yl)methanone]",218 nM,> 1000 nM,
"COc1ccc(F)cc1[C@H]1CCCN1c1ccn2ncc(C(=O)NC[C@@H](O)CO)c2n1 [Example 56, N—((R)-2,3-dihydroxypropyl)-5-((R)-2-(5-fluoro-2-methoxyphenyl)pyrrolidin-1-yl)pyrazolo[1,5-a]pyrimidine-3-carboxamide]",2.4 nM,,> 1000 nM
"C[C@@H](O)[C@H](CO)NC(=O)c1cnn2ccc(N3CCC[C@@H]3c3cc(F)ccc3F)nc12 [Example 174, 5-((R)-2-(2,5-difluorophenyl)pyrrolidin-1-yl)-N-((2S,3R)-1,3-dihydroxybutan-2-yl)pyrazolo[1,5-a]pyrimidine-3-carboxamide]",16.3 nM,> 1000 nM,
"NC(=O)c1cnn2ccc(N3CCC[C@@H]3c3cncc(F)c3)nc12 [Example 117, (R)-5-(2-(5-fluoropyridin-3-yl)pyrrolidin-1-yl)pyrazolo[1,5-a]pyrimidine-3-carboxamide]",45 nM,> 1000 nM,
"O=C(NC1CC1)c1cnn2ccc(N3CCC[C@@H]3c3cc(F)ccc3F)nc12 [Example 13, (R)—N-cyclopropyl-5-(2-(2,5-difluorophenyl)pyrrolidin-1-yl)pyrazolo[1,5-a]pyrimidine-3-carboxamide]",0.5 nM,> 1000 nM,
"Cc1ncc(F)cc1[C@H]1CCCN1c1ccn2ncc(C(=O)NC[C@@H](C)O)c2n1 [Example 189, (R)-5-(2-(5-fluoro-2-methylpyridin-3-yl)pyrrolidin-1-yl)-N-((R)-2-hydroxypropyl)pyrazolo[1,5-a]pyrimidine-3-carboxamide]",76.4 nM,> 1000 nM,
"CC(C)(C)NC(=O)c1cnn2ccc(N3CCC[C@@H]3c3cc(F)ccc3F)nc12 [Example 1, (R)—N-tert-butyl-5-(2-(2,5-difluorophenyl)pyrrolidin-1-yl)pyrazolo[1,5-a]pyrimidine-3-carboxamide]",0.7 nM,> 1000 nM,
"O=C(NCCn1ccnc1)c1cnn2ccc(N3CCC[C@@H]3c3cc(F)ccc3F)nc12 [Example 28, (R)—N-(2-(1H-imidazol-1-yl)ethyl)-5-(2-(2,5-difluorophenyl)pyrrolidin-1-yl)pyrazolo[1,5-a]pyrimidine-3-carboxamide]",2.8 nM,> 1000 nM,
"O=C(NC[C@H](O)CO)c1cnn2ccc(N3CCC[C@@H]3c3cc(F)ccc3F)nc12 [Example 29, 5-((R)-2-(2,5-difluorophenyl)pyrrolidin-1-yl)-N—((S)-2,3-dihydroxypropyl)pyrazolo[1,5-a]pyrimidine-3-carboxamide]",1.3 nM,> 1000 nM,
"COCCNC(=O)c1cnn2ccc(N3CCC[C@@H]3c3cc(F)cnc3C)nc12 [Example 191, (R)-5-(2-(5-fluoro-2-methylpyridin-3-yl)pyrrolidin-1-yl)-N-(2-methoxyethyl)pyrazolo[1,5-a]pyrimidine-3-carboxamide]",69.5 nM,> 1000 nM,
"COc1ccc(F)cc1[C@H]1CCCN1c1ccn2ncc(C(=O)NC3CC3)c2n1 [Example 48, (R)—N-cyclopropyl-5-(2-(5-fluoro-2-methoxyphenyl)pyrrolidin-1-yl)pyrazolo[1,5-a]pyrimidine-3-carboxamide]",0.6 nM,,429 nM
"CC(C)[C@@H](CO)NC(=O)c1cnn2ccc(N3CCC[C@@H]3c3cc(F)ccc3F)nc12 [Example 179, 5-((R)-2-(2,5-difluorophenyl)pyrrolidin-1-yl)-N-((S)-1-hydroxy-3-methylbutan-2-yl)pyrazolo[1,5-a]pyrimidine-3-carboxamide]",8.5 nM,> 1000 nM,
"COc1ncc(F)cc1[C@H]1CCCN1c1ccn2ncc(C(=O)NC[C@@H](O)CO)c2n1 [Example 150, N-((R)-2,3-dihydroxypropyl)-5-((R)-2-(5-fluoro-2-methoxypyridin-3-yl)pyrrolidin-1-yl)pyrazolo[1,5-a]pyrimidine-3-carboxamide]",5.7 nM,> 1000 nM,
"NC(=O)c1cnn2ccc(N3CCC[C@@H]3c3cc(F)cc(OCCN4CCOCC4)c3)nc12 [Example 76, (R)-5-(2-(3-fluoro-5-(2-morpholinoethoxy)phenyl)pyrrolidin-1-yl)pyrazolo[1,5-a]pyrimidine-3-carboxamide]",90 nM,> 1000 nM,
"NCCCNC(=O)c1cnn2ccc(N3CCC[C@@H]3c3cc(F)c[nH]c3=O)nc12 [Example 142, (R)—N-(3-aminopropyl)-5-(2-(5-fluoro-2-oxo-1,2-dihydropyridin-3-yl)pyrrolidin-1-yl)pyrazolo[1,5-a]pyrimidine-3-carboxamide]",12.7 nM,> 1000 nM,
CONC(=O)c1cnn2ccc(N3CCC[C@@H]3c3cccc(F)c3)nc12 [Example 75],6.95 nM,> 1000 nM,
"CC(C)(C)NC(=O)c1cnn2ccc(N3C[C@H](O)C[C@@H]3c3cccc(F)c3)nc12 [Example 42, N-tert-butyl-5-((2R,4R)-2-(3-fluorophenyl)-4-hydroxypyrrolidin-1-yl)pyrazolo[1,5-a]pyrimidine-3-carboxamide]",48.3 nM,> 1000 nM,
"COc1ncc(F)cc1[C@H]1CCCN1c1ccn2ncc(C(=O)Nc3ccc(=O)[nH]c3)c2n1 [Example 161, (R)-5-(2-(5-fluoro-2-methoxypyridin-3-yl)pyrrolidin-1-yl)-N-(6-oxo-1,6-dihydropyridin-3-yl)pyrazolo[1,5-a]pyrimidine-3-carboxamide]",3 nM,> 1000 nM,
